Test results as given in patent publication US11716994B2, “Combinations of Yersinia entomophaga and pesticides or other substances” (priority 2017, dated 2023).
Read-outs that look alike come from different tables or passages of the source.

Columns and labels:
diamondback moth [1] = assay: whole plant or invertebrate; settings: for LT50 (95% confidence intervals): 2nd instar diamondback moth; for LT50 (95% confidence intervals) / mortality at 60 µg/mL / mortality at 0.29 µg/mL: alone or combined; for LT50 Chem. / % Mort. Chem.: Diamondback moth; for mortality at 60 µg/mL / mortality at 0.29 µg/mL: Plutella xylostella, foliar, Abbott's corrected
Source text: (§1) These were set to dry for 1 hr.
as §1
These were set to dry for 1 hr. Cabbage disks were then dipped in either 1% Luria broth (LB) media solution (controls and thiacloprid alone treatments) or in 1% cell free filtrate from a culture Y. entomophaga isolate O24G3R (Y. entomophaga alone or in combination with thiacloprid treatments).

cabbage looper [2] = settings: for LT50 Chem. / % Mort. Chem.: Cabbage Looper
Method: To produce cell free filtrates, cultures of Yersinia entomophaga grown in LB medium were centrifuged at 11,448 (g) for 10 minutes. The supernatant was decanted from the centrifuged pellet and filtered through a 0.22 μm filter. Assays were performed to determine concentrations of Yen-TC (toxin complex) using ELISA, and chitinase by measuring chitinase activity on specific substrates. […] This was done to estimate relative potency of the cell free filtrates. Insects were first pre-screened with a range of dilutions of cell free filtrates to select a concentration that provided moderate activity. […] Based on these initial screens, undiluted cell free filtrate was used for cabbage looper, fall armyworm, black cutworm, and Colorado potato beetle. […] In each of the Examples below, this is expressed as 1%.
Cabbage leaf disks were dipped in either acetone (controls and Y. entomophaga alone treatments) or novaluron (Sigma 32419) at 1.0 mg/L in acetone. These were set to dry for 1 hr. […] After the cabbage disks had dried for 1 hr, a single 3rd instar cabbage looper was added to each individual cabbage disk. A total of 20 insects were evaluate for each treatment. Insects were observed daily and scored as live or dead.

fall armyworm = assay: Leaf disk mortality assay, Y. entomophaga cells with chemical insecticides; settings: for LT50 (95% confidence intervals) in days: 3rd instar; for LT50 (95% confidence intervals) in days / mortality at 60 µg/mL: clothianidin 60 mg/L; for mortality at 60 µg/mL: Spodoptera frugiperda, foliar; for % Mort. Chem.: fall armyworm, Clothianidin 60 mg/L
cabbage looper [3] = system: cabbage looper
black cutworm = assay: Leaf disk mortality assay, Y. entomophaga cells with chemical insecticides; settings: for LT50 Chem. / % Mort. Chem.: black cutworm
Colorado potato beetle = assay: Tomato leaf disk mortality assay, Y. entomophaga cells with chemical insecticides; settings: for LT50 (95% confidence intervals): isolate O43NEW 1×10^7 cfu/mL; for % Mort. Chem. / LT50 Chem.: Colorado potato beetle; for % Mort. Chem.: 5 DAT; for mortality at 0.88 µg/mL / mortality at 120 µg/mL: Leptinotarsa decemlineata, in Solanum lycopersicum, foliar
diamondback moth [4] = assay: Leaf disk mortality assay, Y. entomophaga cells with chemical insecticides; settings: for mortality at 0.29 µg/mL / mortality at 150 µg/mL: Plutella xylostella, foliar; for % Mort. Chem. / LT50 Chem.: diamondback moth
[5] = 48 h, read-out: % Mortality (2DAT)
[6] = 120 h, read-out: % Mortality (5DAT)
[7] = 144 h, read-out: % Mortality (6DAT)
[8] = 168 h, read-out: % Mortality (7DAT)
[9] = 3rd instar, deltamethrin 0.175 mg/L, isolate O43NEW 1×10^4 cfu/mL
[10] = 3rd instar, deltamethrin 1.75 mg/L, isolate O43NEW 1×10^4 cfu/mL
[11] = 96 h, read-out: % Mortality (4DAT)

CN/C(=N\[N+](=O)[O-])NCc1cnc(Cl)s1 [Clothianidin]
LT50 (95% confidence intervals) (diamondback moth [1]; clothianidin 60 mg/L, O43NEW filtrate 1%): 6.120 days
LT50 Chem. (diamondback moth [1]; clothianidin 60 mg/L): 6.12 days
% Mort. Chem. (diamondback moth [1]; clothianidin 60 mg/L, 4 DAT): 47%
mortality at 60 µg/mL (diamondback moth [1]; 96 h, read-out: % Mortality (4DAT), 2nd instar diamondback moth, clothianidin 60 mg/L, O43NEW filtrate 1%, 4 DAT): 47%
mortality at 60 µg/mL (diamondback moth [1]; 120 h, read-out: % Mortality (5DAT), 2nd instar diamondback moth, clothianidin 60 mg/L, O43NEW filtrate 1%, 5 DAT): 53%
LT50 Chem. (cabbage looper [2]; clothianidin 60 mg/L): 9.07 days
% Mort. Chem. (cabbage looper [2]; clothianidin 60 mg/L, 5 DAT): 30%
LT50 (95% confidence intervals) in days (fall armyworm; isolate O24G3R 1×10^5 cfu/mL): 9.38 (8.57-10.27) days
LT50 (95% confidence intervals) in days (fall armyworm; isolate O43NEW 1×10^5 cfu/mL): 10.94 (9.97-12.03) days
LT50 (95% confidence intervals) in days (fall armyworm; isolate O333A4 1×10^5 cfu/mL): 22.94 (19.21-27.62) days
mortality at 60 µg/mL (fall armyworm; 96 h, read-out: % Mortality (4DAT), 3rd instar, isolate O333A4 1×10^5 cfu/mL): 0%
mortality at 60 µg/mL (fall armyworm; 120 h, read-out: % Mortality (5DAT), 3rd instar, isolate O24G3R 1×10^5 cfu/mL): 5%
mortality at 60 µg/mL (fall armyworm; 120 h, read-out: % Mortality (5DAT), 3rd instar, isolate O333A4 1×10^5 cfu/mL): 0%
mortality at 60 µg/mL (fall armyworm; 144 h, read-out: % Mortality (6DAT), 3rd instar, isolate O24G3R 1×10^5 cfu/mL): 11%
mortality at 60 µg/mL (fall armyworm; 168 h, read-out: % Mortality (7DAT), 3rd instar, isolate O43NEW 1×10^5 cfu/mL): 0%
mortality at 60 µg/mL (fall armyworm; 168 h, read-out: % Mortality (7DAT), 3rd instar, isolate O333A4 1×10^5 cfu/mL): 5%
mortality at 60 µg/mL (fall armyworm; 240 h, read-out: % Mortality (10DAT), 3rd instar, isolate O43NEW 1×10^5 cfu/mL): 0%
mortality at 60 µg/mL (fall armyworm; 312 h, read-out: % Mortality (13DAT), 3rd instar, isolate O43NEW 1×10^5 cfu/mL): 11%
% Mort. Chem. (fall armyworm; 5 DAT): 5%
% Mort. Chem. (fall armyworm; 7 DAT): 5%
% Mort. Chem. (fall armyworm; 10 DAT): 0%

CC1(C)C(C=C(Cl)Cl)C1C(=O)OC(C#N)c1ccc(F)c(Oc2ccccc2)c1 (stereo not shown) [Cyfluthrin]
LT50 Chem. (cabbage looper [3]; cabbage looper, Cyfluthrin alone […]): 7.33 days
% Mortality (4DAT) (cabbage looper [3]; in vivo): 30%
% Mortality (5DAT) (cabbage looper [3]; in vivo): 50%
LT75 (95% confidence intervals) (cabbage looper [3]; in vivo): 7.326 days
LT50 (95% confidence intervals) (black cutworm; 3rd instar, cyfluthrin […], isolate O43NEW 1×10^4 cfu/mL): 8.82 days
LT50 Chem. (black cutworm; Cyfluthrin alone […]): 8.82 days

CC1(C)[C@H](C(=O)O[C@H](C#N)c2cccc(Oc3ccccc3)c2)[C@@H]1C=C(Br)Br [Deltamethrin]
LT50 (95% confidence intervals) (diamondback moth [1]; deltamethrin 0.29 mg/L, O43NEW filtrate 1%): 11.58 days
LT50 (95% confidence intervals) (diamondback moth [1]; deltamethrin […], O333A4 filtrate 1%): 12.78 days
LT50 Chem. (diamondback moth [1]; deltamethrin 0.29 mg/L): 11.58 days
% Mort. Chem. (diamondback moth [1]; deltamethrin 0.29 mg/L, 4 DAT): 16%
LT50 Chem. (diamondback moth [1]; deltamethrin […]): 12.78 days
mortality at 0.29 µg/mL (diamondback moth [1]; 48 h, read-out: % Mortality (2DAT), 2nd instar diamondback moth, deltamethrin 0.29 mg/L, O43NEW filtrate 1%, 2 DAT): 0%
mortality at 0.29 µg/mL (diamondback moth [1]; 72 h, read-out: % Mortality (3DAT), 2nd instar diamondback moth, deltamethrin 0.29 mg/L, O43NEW filtrate 1%, 3 DAT): 5%
mortality at 0.29 µg/mL (diamondback moth [1]; 96 h, read-out: % Mortality (4DAT), 2nd instar diamondback moth, deltamethrin 0.29 mg/L, O43NEW filtrate 1%, 4 DAT): 16%
mortality at 0.29 µg/mL (diamondback moth [1]; 168 h, read-out: % Mortality (7DAT), 2nd instar diamondback moth, deltamethrin 0.29 mg/L, O43NEW filtrate 1%, 7 DAT): 21%
mortality at 0.29 µg/mL (diamondback moth [1]; 216 h, read-out: % Mortality (9DAT), 2nd instar diamondback moth, deltamethrin 0.29 mg/L, O43NEW filtrate 1%, 9 DAT): 25%
LT50 (95% confidence intervals) (Colorado potato beetle; 3rd instar larva, deltamethrin 0.88 mg/L): 11.6 days
% Mort. Chem. (Colorado potato beetle; Deltamethrin 0.88 mg/L): 30%
LT50 Chem. (Colorado potato beetle; Deltamethrin alone 0.88 mg/L): 11.60 days
mortality at 0.88 µg/mL (Colorado potato beetle; [5]): 30%
mortality at 0.88 µg/mL (Colorado potato beetle; [6]): 30%
mortality at 0.88 µg/mL (Colorado potato beetle; [7]): 30%
mortality at 0.88 µg/mL (Colorado potato beetle; [8]): 30%
mortality at 0.88 µg/mL (Colorado potato beetle; 216 h, read-out: % Mortality (9DAT)): 30%
% Mortality (3DAT) (black cutworm; [9]): 5%
% Mortality (6DAT) (black cutworm; [9]): 35%
% Mortality (9DAT) (black cutworm; [9]): 55%
% Mortality (10DAT) (black cutworm; [9]): 63%
LT50 (95% confidence intervals) (black cutworm; [9]): 7.67 days
% Mortality (3DAT) (black cutworm; [10]): 45%
LT50 (95% confidence intervals) (black cutworm; [10]): 3.37 days
% Mort. Chem. (black cutworm; Deltamethrin 0.175 mg/L, 6 DAT): 35%
% Mort. Chem. (black cutworm; Deltamethrin 1.75 mg/L, 3 DAT): 45%
LT50 Chem. (black cutworm; Deltamethrin alone 0.175 mg/L): 7.67 days
LT50 Chem. (black cutworm; Deltamethrin alone 1.75 mg/L): 3.37 days
LT50 (95% confidence intervals) (diamondback moth [4]; 3rd instar, deltamethrin 0.29 mg/L, isolate O43NEW 1×10^3 cfu/mL): 11.58 days
mortality at 0.29 µg/mL (diamondback moth [4]; [5]): 0%
mortality at 0.29 µg/mL (diamondback moth [4]; [11]): 16%
mortality at 0.29 µg/mL (diamondback moth [4]; [8]): 21%
mortality at 0.29 µg/mL (diamondback moth [4]; 240 h, read-out: % Mortality (10DAT)): 32%
mortality at 0.29 µg/mL (diamondback moth [4]; 336 h, read-out: % Mortality (14DAT)): 54%
mortality at 0.29 µg/mL (diamondback moth [4]; […], read-out: % Mortality (8DAT)): 24%
% Mort. Chem. (diamondback moth [4]; Deltamethrin 0.29 mg/L, 8 DAT): 24%
LT50 Chem. (diamondback moth [4]; Deltamethrin alone 0.29 mg/L): 11.58 days

CC[S+]([O-])c1c(C#N)nn(-c2c(Cl)cc(C(F)(F)F)cc2Cl)c1N (stereo not shown) [Ethiprole]
LT50 (95% confidence intervals) (Colorado potato beetle; 4th instar larva, ethiprole 120 mg/L): 8.90 days
% Mort. Chem. (Colorado potato beetle; Ethiprole 120 mg/L): 21%
LT50 Chem. (Colorado potato beetle; Ethiprole alone 120 mg/L): 8.90 days
mortality at 120 µg/mL (Colorado potato beetle; 72 h, read-out: % Mortality (3DAT)): 21%
mortality at 120 µg/mL (Colorado potato beetle; [11]): 21%
mortality at 120 µg/mL (Colorado potato beetle; [6]): 21%
mortality at 120 µg/mL (Colorado potato beetle; [7]): 37%

CN1COCN(Cc2cnc(Cl)s2)/C1=N\[N+](=O)[O-] [Thiamethoxam]
LT50 (95% confidence intervals) in days (cabbage looper [2]; 3rd instar cabbage looper, thiamethoxam 150 mg/L, O43NEW undiluted filtrate, alone or combined): 6.97 (5.92-8.22) days
LT50 Chem. (cabbage looper [2]; thiamethoxam 150 mg/L): 6.97 days
% Mort. Chem. (cabbage looper [2]; thiamethoxam 150 mg/L, DAT column prints 62): 1.1%
mortality at 150 µg/mL (diamondback moth [4]; [6]): 11%
mortality at 150 µg/mL (diamondback moth [4]; [7]): 16%
% Mort. Chem. (diamondback moth [4]; Thiamethoxam 150 mg/L, 6 DAT): 16%
LT50 Chem. (diamondback moth [4]; Thiamethoxam alone 150 mg/L): 10.09 days
